Results published in patent US11472803B2, “7-substituted 1-aryl-naphthyridine-3-carboxylic acid amides and use thereof” (Bayer Aktiengesellschaft, priority 2016, dated 2022).

What was measured:
human M2 receptor [1] = biological target: T1, human M2 receptor (Homo sapiens, UniProt P08172); experiment: Functional M2-GIRK1/4 activation test: allosteric potency (EC50) and efficiency at EC20 acetylcholine; assay type: cell-based; conditions: CHO-DUKX-M2-GIRK cells; for EC50: voltage-sensitive dye, acetylcholine at EC20, in some cases mean of two or more determinations; for Emax / Efficiency: boosting of the acetylcholine effect at EC20 acetylcholine concentration
T1 construct: expressed in transfected cells; host or cells: CHO-DUKX (CHO-DUKX-M2-GIRK)
T1 sequence (P08172 1-466): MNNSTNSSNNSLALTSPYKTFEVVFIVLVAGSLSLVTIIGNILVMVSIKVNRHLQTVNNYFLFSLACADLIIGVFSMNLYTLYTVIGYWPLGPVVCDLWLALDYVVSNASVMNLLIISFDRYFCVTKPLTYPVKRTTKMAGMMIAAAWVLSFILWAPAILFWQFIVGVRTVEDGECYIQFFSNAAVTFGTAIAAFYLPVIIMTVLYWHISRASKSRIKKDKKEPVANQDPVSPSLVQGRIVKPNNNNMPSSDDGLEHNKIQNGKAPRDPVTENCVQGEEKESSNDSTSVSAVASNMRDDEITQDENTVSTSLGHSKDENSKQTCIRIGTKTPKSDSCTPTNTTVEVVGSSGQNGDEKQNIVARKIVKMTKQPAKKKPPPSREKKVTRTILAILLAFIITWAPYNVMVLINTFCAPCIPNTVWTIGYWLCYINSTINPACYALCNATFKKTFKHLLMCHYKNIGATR
In short: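 Positive allosteric modulation measured as boosting of an EC20 acetylcholine response: hyperpolarization via GIRK1/4 in CHO-DUKX-M2-GIRK cells, monitored by membrane-potential dye fluorescence over 60 s after agonist, compound preadded. Hill-function fit gives EC50 and efficiency.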

human M2 receptor [2] = biological target: T1, human M2 receptor; experiment: Functional M2-GIRK1/4 activation test: positive cooperativity (α factor), shift of acetylcholine dose-response curve; assay type: cell-based; conditions: Allosteric EC50 shift of acetylcholine 8-point dose-response curve; CHO-DUKX-M2-GIRK cells; α>1 = positive cooperativity
From the text: The binding of orthosteric agonists (endogenous ligand: acetylcholine) to the M2 receptor leads to receptor activation or a change in conformation of the receptor in the manner of a shift in equilibrium in favour of the active receptor conformation.
The agonist-induced change in conformation of the M2 receptor results in a Gαi protein activation. […] Under physiological conditions, the result is then a selective efflux of potassium from the cell along the electrochemical gradient. […] The extent of hyperpolarization can therefore be regarded as a measure of the activation of the M2 receptor.
The test cell used is a recombinant CHO-DUKX cell line which has been stably transfected with cDNA coding for the human M2 receptor and with cDNA coding for both GIRK1/4 subunits (CHO-DUKX-M2-GIRK). The transmembrane potential, or the relative changes in the transmembrane potential as a function of substance addition or M2 activation, is determined by means of a voltage-sensitive dye (FLIPR Membrane Potential Assay Kit Blue, Molecular Devices #R8034) and the measurement of cell fluorescence using a proprietary fluorescence imaging instrument.
In accordance with the desired test concentrations, the substances were pre-diluted in loading buffer (see above).
The sowing medium consisted of MEM alpha medium (supplemented with 5% PCS, 2% Glutamax, no genticin).
For the particular measurement, the medium was removed and the cells were laden with the volt-age-sensitive dye for at least 6 min at room temperature (30 μl of loading buffer per 384-well). This was followed, in a first measurement, by the determination of the resting transmembrane potential for a period of 5 sec in 1 sec increments. Thereafter, 10 μl in each case of the test substances diluted in loading buffer are added, followed by a second measurement to determine the transmembrane potential for a period of 50 sec in 1 sec increments.
Finally, the cells are admixed with 10 μl of agonist solution (acetylcholine dissolved in loading buffer). In contrast to the EC50 determination of the test substances (see B-1.1), however, this is not done using one acetylcholine concentration; instead, every concentration of the test substance is combined with an acetylcholine 8-point dose-response curve. […] The M2-mediated GIRK1/4 activation or hyperpolarization is then monitored in a third measurement over a period of 60 sec in 1 sec increments. The shift in the acetylcholine dose-response curve in the presence of increasing concentrations of the test substance is analysed and quantified by means of GraphPad PRISM (Allosteric EC50 shift). […] Positive cooperativity is the hallmark of a positive allosteric modulator. […] The greater the magnitude of the α value, the greater the extent of cooperativity between orthosteric and allosteric.

SMILES	EC50 (human M2 receptor [1])	Emax (human M2 receptor [1])	Cooperativity (alpha factor) (human M2 receptor [2])	Efficiency (human M2 receptor [1])
O=C(NC(C(F)(F)F)C(F)(F)F)c1cn(-c2c(F)cc(F)cc2F)c2nc(N3C[C@@H](O)[C@H](O)C3)c(F)cc2c1=O [Example 144, 7-[(3R,4R)-3,4-Dihydroxypyrrolidin-1-yl]-6-fluoro-N-(1,1,1,3,3,3-hexafluoropropan-2-yl)-4-oxo-1-(2,4,6-trifluorophenyl)-1,4-dihydro-1,8-naphthyridine-3-carboxamide]	4.5 nM	98%	67	
CC(C)(NC(=O)c1cn(-c2c(F)cc(F)cc2F)c2nc(N3C[C@@H](O)[C@H](O)C3)c(F)cc2c1=O)C(F)F [Example 22, N-(1,1-difluoro-2-methylpropan-2-yl)-7-[(3R,4R)-3,4-dihydroxypyrrolidin-1-yl]-6-fluoro-4-oxo-1-(2,4,6-trifluorophenyl)-1,4-dihydro-1,8-naphthyridine-3-carboxamide]	10 nM	95%	42	
CC(C)(NC(=O)c1cn(-c2c(F)cc(F)cc2F)c2nc(N3C[C@@H](O)[C@H](O)C3)c(F)cc2c1=O)C(F)(F)F [Example 23, 7-[(3R,4R)-3,4-dihydroxypyrrolidin-1-yl]-6-fluoro-4-oxo-N-(1,1,1-trifluoro-2-methylpropan-2-yl)-1-(2,4,6-trifluorophenyl)-1,4-dihydro-1,8-naphthyridine-3-carboxamide]	5.5 nM	100%	41	
CC[C@H](NC(=O)c1cn(-c2c(F)cc(F)cc2Cl)c2nc(N3C[C@@H](O)[C@H](O)C3)c(F)cc2c1=O)C(F)(F)F (single isomer, unassigned) [Example 48]	1.8 nM		42	78%
CC(C)(C)NC(=O)c1cn(-c2c(F)cc(F)cc2F)c2nc(N3C[C@@H](O)[C@H](O)C3)c(F)cc2c1=O [Example 90, N-tert-Butyl-7-[(3R,4R)-3,4-dihydroxypyrrolidin-1-yl]-6-fluoro-4-oxo-1-(2,4,6-trifluoro-phenyl)-1,4-dihydro-1,8-naphthyridine-3-carboxamide]	18.5 nM	95%	30	
CC[C@H](NC(=O)c1cn(-c2c(F)cc(F)cc2F)c2nc(N3C[C@@H](O)[C@H](O)C3)c(F)cc2c1=O)C(F)(F)F [Example 6, 7-[(3R,4R)-3,4-Dihydroxypyrrolidin-1-yl]-6-fluoro-4-oxo-N-[(2S)-1,1,1-trifluorobutan-2-yl]-1-(2,4,6-trifluorophenyl)-1,4-dihydro-1,8-naphthyridine-3-carboxamide]	6.17 nM	94%	58	

Continued, values first:

EC50 (human M2 receptor [1])	Emax (human M2 receptor [1])	Cooperativity (alpha factor) (human M2 receptor [2])	Efficiency (human M2 receptor [1])	SMILES
6.4 nM	83%	13		CC(NC(=O)c1cn(-c2c(F)cc(F)cc2F)c2nc(N3CCCC[C@@H]3CO)c(F)cc2c1=O)C(F)(F)C(F)(F)F (single isomer, unassigned) [Example 185]
3.3 nM		24	100%	O=C(NC(C1CC1)C(F)(F)C(F)(F)F)c1cn(-c2c(F)cc(F)cc2F)c2nc(N3CC(CO)(CO)C3)c(F)cc2c1=O (single isomer, unassigned) [Example 207, 7-[3,3-bis(hydroxymethyl)azetidin-1-yl]-N-[1-cyclopropyl-2,2,3,3,3-pentafluoropropyl]-6-fluoro-4-oxo-1-(2,4,6-trifluorophenyl)-1,4-dihydro-1,8-naphthyridine-3-carboxamide]
2 nM	100%	45		CC(C)(NC(=O)c1cn(-c2c(F)cc(F)cc2F)c2nc(N3C[C@@H](O)[C@H](O)C3)c(F)cc2c1=O)C(F)(F)C(F)(F)F [Example 164, 7-[(3R,4R)-3,4-Dihydroxypyrrolidin-1-yl]-6-fluoro-4-oxo-N-(3,3,4,4,4-pentafluoro-2-methyl-butan-2-yl)-1-(2,4,6-trifluorophenyl)-1,4-dihydro-1,8-naphthyridine-3-carboxamide]
